The values below come from PubChem BioAssay (NCI).

SMILES strings stand for the structures.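 96-well plates; 48 h exposure; 5 concentrations. Endpoints by linear interpolation between flanking doses. Not reached: highest tested concentration assigned. TGI is the concentration that stops growth completely.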 Where a SMILES comes first, the peptide text is derived from it. [ ]: non-standard residue; d: D form. pGlu = O=C1CC[CH](C(=O)O)N1; Thz = O=C(O)[CH]1CSCN1

Test systems include SW-620 colon; SF-539 CNS; CAKI-1 renal; NCI-H460 lung; MDA-MB-435; MDA-MB-231 breast; LOX IMVI melanoma; SNB-19 CNS; DU-145 prostate; M14 melanoma; A498 renal; HCC-2998 colon.
Assay in all cases: DTP human tumour cell line panel, 48 h

The term TGI denotes the concentration at which net growth stops. Read a low TGI as more potent growth arrest. With `COc1ccc(/[N+]([O-])=C/c2ccc(OC(=S)S)c(OC)c2)cc1`, the TGI is above 100 µM with SW-620 colon; above 100 µM in the test on SF-539 CNS; 66.7 µM in the test with CAKI-1 renal; above 100 µM in the test on NCI-H460 lung; 61.1 µM with MDA-MB-435; above 100 µM in the test on MDA-MB-231 breast. For the same compound, the TGI in the test with LOX IMVI melanoma, in the test with SNB-19 CNS, in the test on DU-145 prostate, in the test with M14 melanoma, in the test with A498 renal and in the test on HCC-2998 colon was above 100 µM throughout.
As for `COc1c2c(c3c(c1OC)c(=O)c1ccccc1n3C)OCO2`, the concentration for total growth inhibition (TGI) in the test with SW-620 colon, in the test on SF-539 CNS, with CAKI-1 renal, in the test on NCI-H460 lung, with MDA-MB-435 and in the test with MDA-MB-231 breast was above 100 µM each time. The concentration for total growth inhibition (TGI) in the test with LOX IMVI melanoma, in the test on SNB-19 CNS, in the test on DU-145 prostate, in the test with M14 melanoma, in the test with A498 renal and with HCC-2998 colon was above 100 µM throughout.
As to `ClCc1nc2ccccc2[nH]1`, the concentration for total growth inhibition (TGI) in the test on SW-620 colon, with SF-539 CNS, in the test with CAKI-1 renal, in the test on NCI-H460 lung, in the test on MDA-MB-435 and in the test on MDA-MB-231 breast was above 100 µM each time. In addition, the TGI with LOX IMVI melanoma, with SNB-19 CNS, in the test with DU-145 prostate, with M14 melanoma, in the test on A498 renal and in the test on HCC-2998 colon was above 100 µM each time.
On to `C[C@H](Nc1nc(N)c(N=O)c(=O)n1C)C(=O)O`, for which the TGI in the test on SW-620 colon, with SF-539 CNS, in the test with CAKI-1 renal, in the test on NCI-H460 lung, in the test on MDA-MB-435 and in the test with MDA-MB-231 breast was above 10 µM each time. The TGI in the test on LOX IMVI melanoma, with SNB-19 CNS, with DU-145 prostate, in the test on M14 melanoma, with A498 renal and with HCC-2998 colon was above 10 µM throughout.
For the compound `CCOC(=O)C12CCC(=O)N1N(C)c1ncccc1N2` (configuration not stated), the concentration for total growth inhibition (TGI) with SW-620 colon, in the test with SF-539 CNS, in the test on CAKI-1 renal, in the test with NCI-H460 lung, with MDA-MB-435 and in the test with MDA-MB-231 breast was above 100 µM throughout. Further, the TGI in the test with LOX IMVI melanoma, with SNB-19 CNS, in the test on DU-145 prostate, in the test on M14 melanoma, with A498 renal and in the test with HCC-2998 colon was above 100 µM each time.
Consider `COC(=O)CCc1ccc(CCC(=O)OC)cc1`, for which the concentration for total growth inhibition (TGI) in the test on SW-620 colon, with SF-539 CNS, with CAKI-1 renal, with NCI-H460 lung, in the test with MDA-MB-435 and with MDA-MB-231 breast was above 100 µM throughout. In addition, the TGI in the test on LOX IMVI melanoma, in the test on SNB-19 CNS, in the test with DU-145 prostate, with M14 melanoma, in the test with A498 renal and in the test with HCC-2998 colon was above 100 µM in each case.
For the compound `C(=N\c1nc2cc3sc(/N=C/c4ccccc4)nc3cc2s1)/c1ccccc1`, the TGI in the test on SW-620 colon, in the test with SF-539 CNS, in the test on CAKI-1 renal, in the test on NCI-H460 lung, with MDA-MB-435 and with MDA-MB-231 breast was above 100 µM each time. Further, the TGI in the test with LOX IMVI melanoma, in the test with SNB-19 CNS, in the test on DU-145 prostate, in the test with M14 melanoma, with A498 renal and in the test on HCC-2998 colon was above 100 µM throughout.
On to `O=C1CCC(C(=O)N2CSCC2C(=O)O)N1` (configuration not stated) ([pGlu]-[Thz]-OH; configuration not given here), for which the concentration for total growth inhibition (TGI) in the test with SW-620 colon, in the test with SF-539 CNS, in the test on CAKI-1 renal, in the test on NCI-H460 lung, with MDA-MB-435 and in the test on MDA-MB-231 breast was above 100 µM each time. The TGI in the test on LOX IMVI melanoma, in the test on SNB-19 CNS, in the test on DU-145 prostate, in the test on M14 melanoma, in the test with A498 renal and in the test on HCC-2998 colon was above 100 µM each time.
`Cc1nc(-c2ccccc2)cn2c1nc1ccccc12`: the TGI in the test on SW-620 colon is 99.1 µM; in the test on SF-539 CNS, 53 µM; with CAKI-1 renal, 62.1 µM; in the test on NCI-H460 lung it was 37.1 µM; in the test on MDA-MB-435 it was 36.9 µM; in the test with MDA-MB-231 breast, above 100 µM. Also, the TGI with LOX IMVI melanoma is above 31.6 µM; with SNB-19 CNS, above 76.2 µM; in the test on DU-145 prostate, above 100 µM; in the test on M14 melanoma it was above 82.8 µM; with A498 renal, 23.5 µM; with HCC-2998 colon, above 100 µM.
`Cc1ccc(S(=O)(=O)n2cc(C=O)c(-c3cn(S(=O)(=O)c4ccc(C)cc4)cc3-c3cn(S(=O)(=O)c4ccc(C)cc4)cc3C=O)c2)cc1`: the TGI in the test on SW-620 colon is above 100 µM; in the test on SF-539 CNS, 76.4 µM; with CAKI-1 renal, above 100 µM; in the test on NCI-H460 lung it was above 100 µM; in the test on MDA-MB-435, above 100 µM; in the test with MDA-MB-231 breast it was above 100 µM. Also, the TGI is 74.4 µM in the test on LOX IMVI melanoma; above 100 µM with SNB-19 CNS; above 100 µM in the test on DU-145 prostate; above 100 µM with M14 melanoma; above 100 µM with A498 renal; above 100 µM in the test on HCC-2998 colon.
For `O=[N+]([O-])c1ncc(N(CCO)CCO)s1`, the TGI is above 100 µM in the test on SW-620 colon; 30.7 µM with SF-539 CNS; above 100 µM in the test with CAKI-1 renal; above 100 µM in the test on NCI-H460 lung; above 100 µM in the test with MDA-MB-435; above 100 µM in the test on MDA-MB-231 breast. Further, the total growth inhibition concentration (TGI) in the test with LOX IMVI melanoma was 31.9 µM; with SNB-19 CNS, above 100 µM; in the test on DU-145 prostate, above 100 µM; with M14 melanoma, above 100 µM; in the test on A498 renal, above 100 µM; with HCC-2998 colon, above 100 µM.
